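Exposure lasted 48 hours, with cells grown in 96-well plates and compounds tested at five concentrations. TGI is the concentration that stops growth completely.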
Key:
Assay in all cases: NCI anticancer screen, dose series, 48 h
PC-3 prostate = system: PC-3 prostate
OVCAR-8 ovarian = system: OVCAR-8 ovarian
MCF7 breast = system: MCF7 breast
HL-60(TB) leukemia = system: HL-60(TB) leukemia
SF-295 CNS = system: SF-295 CNS
COLO 205 colon = system: COLO 205 colon
HS 578T breast = system: HS 578T breast
SK-MEL-2 melanoma = system: SK-MEL-2 melanoma
HOP-92 NSCLC = system: HOP-92 NSCLC
MDA-N = system: MDA-N
HCT-15 colon = system: HCT-15 colon
SF-539 CNS = system: SF-539 CNS
786-0 renal = system: 786-0 renal
OVCAR-4 ovarian = system: OVCAR-4 ovarian
SW-620 colon = system: SW-620 colon
NCI-H226 lung = system: NCI-H226 lung
ACHN renal = system: ACHN renal
CCRF-CEM leukemia = system: CCRF-CEM leukemia
EKVX NSCLC = system: EKVX NSCLC
MDA-MB-231 breast = system: MDA-MB-231 breast
SF-268 CNS = system: SF-268 CNS
NCI-H522 lung = system: NCI-H522 lung
KM12 colon = system: KM12 colon
HCC-2998 colon = system: HCC-2998 colon
SN12C renal = system: SN12C renal
SK-OV-3 ovarian = system: SK-OV-3 ovarian
MOLT-4 leukemia = system: MOLT-4 leukemia
TK-10 renal = system: TK-10 renal
U251 CNS = system: U251 CNS
HCT-116 colon = system: HCT-116 colon
OVCAR-5 ovarian = system: OVCAR-5 ovarian
NCI-H23 lung = system: NCI-H23 lung
T-47D breast = system: T-47D breast
SK-MEL-5 melanoma = system: SK-MEL-5 melanoma
NCI-H460 lung = system: NCI-H460 lung
HT29 colon = system: HT29 colon
K-562 leukemia = system: K-562 leukemia
RXF 393 renal = system: RXF 393 renal
M14 melanoma = system: M14 melanoma
SK-MEL-28 melanoma = system: SK-MEL-28 melanoma
BT-549 breast = system: BT-549 breast
SNB-19 CNS = system: SNB-19 CNS
UACC-257 melanoma = system: UACC-257 melanoma
LOX IMVI melanoma = system: LOX IMVI melanoma
RPMI-8226 leukemia = system: RPMI-8226 leukemia
DU-145 prostate = system: DU-145 prostate
A498 renal = system: A498 renal
OVCAR-3 ovarian = system: OVCAR-3 ovarian
CAKI-1 renal = system: CAKI-1 renal
NCI/ADR-RES ovarian = system: NCI/ADR-RES ovarian
MALME-3M melanoma = system: MALME-3M melanoma
UO-31 renal = system: UO-31 renal
HOP-62 NSCLC = system: HOP-62 NSCLC
SNB-75 CNS = system: SNB-75 CNS
IGROV1 ovarian = system: IGROV1 ovarian
MDA-MB-435 = system: MDA-MB-435
UACC-62 melanoma = system: UACC-62 melanoma
A549 NSCLC = system: A549 NSCLC
SR leukemia = system: SR leukemia

CCC1CN2CCc3c([nH]c4ccccc34)[C@@](C(=O)OC)(c3cc4c(cc3OC)N(C)C3C(O)(C(=O)OC)C(C(=O)OC)C5(CC)C=CCN6CCC43C65)C[C@@H](C2)[C@@H]1C(C)(C)C (some centres undefined)
TGI (PC-3 prostate): 3.26 µM
TGI (OVCAR-8 ovarian): > 3.79 µM
TGI (MCF7 breast): > 10 µM
TGI (HL-60(TB) leukemia): 1.23 µM
TGI (SF-295 CNS): 0.555 µM
TGI (COLO 205 colon): > 6.1 µM
TGI (HS 578T breast): > 6.86 µM
TGI (SK-MEL-2 melanoma): > 4.02 µM
TGI (HOP-92 NSCLC): 8.19 µM
TGI (MDA-N): 0.424 µM
TGI (HCT-15 colon): 2.82 µM
TGI (SF-539 CNS): 2.31 µM
TGI (786-0 renal): 7.16 µM
TGI (OVCAR-4 ovarian): > 10 µM
TGI (SW-620 colon): > 10 µM
TGI (NCI-H226 lung): 0.902 µM
TGI (ACHN renal): > 10 µM
TGI (CCRF-CEM leukemia): > 5.53 µM
TGI (EKVX NSCLC): > 10 µM
TGI (MDA-MB-231 breast): 3.42 µM
TGI (SF-268 CNS): > 10 µM
TGI (NCI-H522 lung): 3.56 µM
TGI (KM12 colon): > 5.72 µM
TGI (HCC-2998 colon): 1.52 µM
TGI (SN12C renal): 9.93 µM
TGI (SK-OV-3 ovarian): > 10 µM
TGI (MOLT-4 leukemia): 8.12 µM
TGI (TK-10 renal): > 10 µM
TGI (U251 CNS): > 3.52 µM
TGI (HCT-116 colon): 2.85 µM
TGI (OVCAR-5 ovarian): > 10 µM
TGI (NCI-H23 lung): > 6.31 µM
TGI (T-47D breast): > 10 µM
TGI (SK-MEL-5 melanoma): 1.25 µM
TGI (NCI-H460 lung): 2.34 µM
TGI (HT29 colon): > 2.64 µM
TGI (K-562 leukemia): 9.73 µM
TGI (RXF 393 renal): > 10 µM
TGI (M14 melanoma): 8.22 µM
TGI (SK-MEL-28 melanoma): > 10 µM
TGI (BT-549 breast): > 8.68 µM
TGI (SNB-19 CNS): > 2.53 µM
TGI (UACC-257 melanoma): > 7.97 µM
TGI (LOX IMVI melanoma): 2 µM
TGI (RPMI-8226 leukemia): > 4.43 µM
TGI (DU-145 prostate): 9.32 µM
TGI (A498 renal): 1.12 µM
TGI (OVCAR-3 ovarian): > 2.85 µM
TGI (CAKI-1 renal): > 10 µM
TGI (NCI/ADR-RES ovarian): > 7.23 µM
TGI (MALME-3M melanoma): 2.95 µM
TGI (UO-31 renal): > 6.12 µM
TGI (HOP-62 NSCLC): 1.25 µM
TGI (SNB-75 CNS): > 10 µM
TGI (IGROV1 ovarian): > 10 µM
TGI (MDA-MB-435): 0.462 µM
TGI (UACC-62 melanoma): > 10 µM
TGI (A549 NSCLC): > 10 µM
TGI (SR leukemia): > 6.41 µM
